Results on one compound are retold here after article PMC12610721, “The Action of Cannabidiol on Doxycycline Cytotoxicity in Human Cells—In Vitro Study” (Molecules, 2025).

Converted amounts (≈) assume the structure as drawn. Read-outs that look alike come from different tables or passages of the source.

Data set [1] concerns HEK-293 cells. Also on record: method as in earlier work. The following applies: cited from earlier work; for IC50: HEK-293, 48 h of exposure.
In data set [2] the test system is HepG2 cells. The experiment in a line: series of five cytotoxicity assays (MTT, NRU, TPC, LDH, BrdU), summary. It is filed as cell-based. The note with it: Homo sapiens, HepG2, 72 h, across MTT, read-out: IC50 values, range depending on the cellular parameter evaluated.
Experimental: The cultured cells, for 72 h, were exposed to doxycycline (at concentrations ranging from 1.56 μg/mL to 200 μg/mL), both alone and in combination with CBD: 1.56 μg/mL (DOX + C1) and 3.125 μg/mL (DOX + C2) at two non-toxic doses (Supplementary Materials). A series of cytotoxicity assays included assessments of mitochondrial activity, lysosomal activity, cell membrane integrity, DNA synthesis, and cell proliferation.
The metabolic activity of viable cells was assessed by measuring dehydrogenase activity [82]. After exposing the cell cultures to the test compounds, 10 µL of MTT solution (5 mg/mL in PBS) was added to each well of a 96-well plate. […] The plate was shaken for 15 min at room temperature and transferred to a Synergy 2 Multi-Mode Microplate Reader (BioTek® Instruments Inc., Winooski, VT, USA) to measure absorbance at 570 nm, using a blank as reference. Cytotoxicity was expressed as a percentage relative to the negative control [83].
This method is based on staining viable cells with neutral red, a dye that readily diffuses through the plasma membrane and accumulates in lysosomes [84]. […] After 10 min of shaking, the absorbance of the extracted dye was measured at 540 nm using a Synergy 2 Multi-Mode Microplate Reader (BioTek® Instruments Inc., Winooski, VT, USA), with a blank as reference. Cytotoxicity was expressed as a percentage relative to the negative control [83]. […]
The subject of data set [3] is SH-SY5Y human neuroblastoma cells. Also on record: method as in PMID 33429042. The note with it: 24 h, 4 ng/mL to 4.4 µg/mL; cited from earlier work.
The subject of data set [4] is HepG2 cells. In words: proliferation, total cellular protein (TPC assay). On the procedure:
(§1) This innovative study evaluated the effects of cannabidiol (Cannabis sativa L.) on doxycycline-induced toxicity using three cell cultures: neural—SH-SY5Y, liver—HepG2, and kidney—HEK-293. […] A series of cytotoxicity assays included assessments of mitochondrial activity, lysosomal activity, cell membrane integrity, DNA synthesis, and cell proliferation. Based on the obtained results, IC50 values for doxycycline, both in monotherapy and in combination with CBD, were calculated, along with evaluations of ROS, death of cells, and morphology. The interaction between the drug and CBD was further analyzed by the combination index (CI).
(§2) This assay is based on staining total cellular proteins as a measure of proliferation. After incubation, the medium containing the test compounds was removed, and 100 µL of Coomassie Brilliant Blue R-250 dye was added to each well. The plate was shaken for 10 min. The dye was then removed, and the cells were rinsed twice with 100 µL of washing solution (glacial acetic acid/ethanol/water, 5:10:85, v/v/v). Next, 100 µL of desorbing solution (1 M potassium acetate) was added, and the plate was shaken again for 10 min. Absorbance was measured at 595 nm using the Synergy 2 Multi-Mode Microplate Reader (BioTek® Instruments Inc., Winooski, VT, USA), with a blank as reference. Cytotoxicity was expressed as a percentage relative to the negative control.
(§3) To determine the types of interaction that occur when cells are exposed to combinations of DOX and CBD, the method established by Chou and Talalay was used in this study. The dose–effect relationships of the individual and combined test compounds were modeled biometrically using the Median-Effect Equation based on the Mass Action Law.fa/fu = (D/Dm)^m
(§4) In this isobolographic analysis, the combination index (CI) is a quantitative parameter used to evaluate the type and strength of interactions between multiple compounds. For all combinations, CI values were calculated across a range of affected fractions (Fa) from 0.05 to 0.95 (corresponding to 5–95% toxicity). CI values of 0.9–1.1, <0.9, and >1.1 indicate additive, synergistic, and antagonistic effects, respectively.
(§5) The study was conducted in three independent experiments (n = 3). […] Cytotoxicity data were analyzed using one-way analysis of variance (ANOVA), followed by Dunnett’s post hoc test to assess significance relative to the negative control. The half-maximal inhibitory concentration (IC50), representing the drug or drug–CBD mixture concentration required to inhibit cell viability by 50%, was calculated using GraphPad Prism 5.0. Statistical comparisons between IC50 values were performed using ANOVA followed by Tukey’s post hoc test. Differences were considered statistically significant at p ≤ 0.05.

Data set [5] concerns HEK-293 cells. The experiment in a line: proliferation, total cellular protein (TPC assay). The procedure:
as §1, §2, §3, §4, §5

Data set [6] concerns SH-SY5Y cells. The experiment in a line: proliferation, total cellular protein (TPC assay). The following applies: 72 h. On the procedure:
as §1, §2, §3, §4, §5

As to `C[C@H]1c2cccc(O)c2C(=O)C2=C(O)[C@]3(O)C(=O)C(C(N)=O)=C(O)[C@@H](N(C)C)[C@@H]3[C@@H](O)[C@@H]21` [DOX, doxycycline hyclate], the “effect on cell viability” value in data set [1] (HEK-293, 20 µg/mL) is “reduces the viability”. Besides, the induction of apoptosis entry in data set [1] (HEK-293, 20 µg/mL) is given as “does not induce apoptosis”. Moreover, the IC50 in data set [1] (converted value in brackets) is 6.05 µg/mL; in data set [1] (read-out: IC50), 11.8 µM; in data set [2], 13.4 to 200 µg/mL (≈ 30.2 to 450 µM); in data set [4] (Homo sapiens, HepG2, 72 h) it was > 200 µg/mL; in data set [5] (Homo sapiens, HEK293, 72 h), 14.8 ± 1.3 µg/mL; in data set [6] (Homo sapiens), > 200 µg/mL. For the same compound, in data set [3], the “effect on production of reactive oxygen species (ROS)” value is “protective effect”. The “doxycycline concentration that reduced cell proliferation” value in data set [4] (HepG2, TPC, 72 h) amounted to 50 µg/mL. Besides, the “doxycycline concentration that inhibited cell proliferation” value in data set [5] (HEK-293, TPC, 72 h) is 12.5 µg/mL. Moreover, the “doxycycline concentration at which cell proliferation decreased” value in data set [6] (TPC) came out at 50 µg/mL.
